# Where no end group is shown, it is not given here.
# Experiments:
# [1] = test system: T cell clones reactive to MPO peptide #25; assay: Binding of HLA-A2 multimers with alanine-substituted MPO peptide #25 to T cell clones; type: cell-based, human; conditions: PE-conjugated multimers; 3 T cell clones from CTL line #25; flow cytometry
# Description: FIG. 6A-C. […] (A) Assays were performed as described in FIG. 2, except that only degranulation responses were measured. […] (B) Three of the clones shown in (A) were examined for binding of PE-conjugated HLA-A2 multimers containing the #25 peptide with and without an alanine substitution in each position, using flow cytometry.
# To obtain more information on the range of T cell reactivities to one of these novel T cell epitopes, T-cell clones were generated from CTL line #25, specific for MPO epitope […] (SEQ ID NO:45).
# [2] = test system: primary T cells transduced with a MART-1 specific TCR; assay: Binding of alanine-replaced peptide #25 multimers to MART-1 TCR transduced T cells; type: cell-based, human; conditions: specificity control for alanine-replaced multimers
substance,measurement,setting,value
"P506A: MPO peptide #25 (LIQPFMFRL) with an alanine-replacement in position 4, in HLA-A2 multimer (LIQAFMFRL; also: in HLA-A2 multimer) [Peptide P506A]",HLA-A2 multimer binding of alanine-substituted #25 peptide relative to WT peptide,[1],higher binding
same,Multimer binding to primary T cells transduced with a MART-1 specific TCR,[2],bound non-specifically
